Active and inactive are the calls of the source. The rule behind the calls is not given here.
Key:
[1] = Thermodynamic stability assessed as onset melting temperature; type: physicochemical
[2] = biological target: T1, Phosphatidylinositol 3-kinase C2 domain-containing subunit gamma (Homo sapiens, UniProt O75747); test: Inhibition of PIK3C2G (unknown origin) assessed as reduction in substrate phosphorylation by FRET Adapta assay
T1 sequence (O75747 whole entry): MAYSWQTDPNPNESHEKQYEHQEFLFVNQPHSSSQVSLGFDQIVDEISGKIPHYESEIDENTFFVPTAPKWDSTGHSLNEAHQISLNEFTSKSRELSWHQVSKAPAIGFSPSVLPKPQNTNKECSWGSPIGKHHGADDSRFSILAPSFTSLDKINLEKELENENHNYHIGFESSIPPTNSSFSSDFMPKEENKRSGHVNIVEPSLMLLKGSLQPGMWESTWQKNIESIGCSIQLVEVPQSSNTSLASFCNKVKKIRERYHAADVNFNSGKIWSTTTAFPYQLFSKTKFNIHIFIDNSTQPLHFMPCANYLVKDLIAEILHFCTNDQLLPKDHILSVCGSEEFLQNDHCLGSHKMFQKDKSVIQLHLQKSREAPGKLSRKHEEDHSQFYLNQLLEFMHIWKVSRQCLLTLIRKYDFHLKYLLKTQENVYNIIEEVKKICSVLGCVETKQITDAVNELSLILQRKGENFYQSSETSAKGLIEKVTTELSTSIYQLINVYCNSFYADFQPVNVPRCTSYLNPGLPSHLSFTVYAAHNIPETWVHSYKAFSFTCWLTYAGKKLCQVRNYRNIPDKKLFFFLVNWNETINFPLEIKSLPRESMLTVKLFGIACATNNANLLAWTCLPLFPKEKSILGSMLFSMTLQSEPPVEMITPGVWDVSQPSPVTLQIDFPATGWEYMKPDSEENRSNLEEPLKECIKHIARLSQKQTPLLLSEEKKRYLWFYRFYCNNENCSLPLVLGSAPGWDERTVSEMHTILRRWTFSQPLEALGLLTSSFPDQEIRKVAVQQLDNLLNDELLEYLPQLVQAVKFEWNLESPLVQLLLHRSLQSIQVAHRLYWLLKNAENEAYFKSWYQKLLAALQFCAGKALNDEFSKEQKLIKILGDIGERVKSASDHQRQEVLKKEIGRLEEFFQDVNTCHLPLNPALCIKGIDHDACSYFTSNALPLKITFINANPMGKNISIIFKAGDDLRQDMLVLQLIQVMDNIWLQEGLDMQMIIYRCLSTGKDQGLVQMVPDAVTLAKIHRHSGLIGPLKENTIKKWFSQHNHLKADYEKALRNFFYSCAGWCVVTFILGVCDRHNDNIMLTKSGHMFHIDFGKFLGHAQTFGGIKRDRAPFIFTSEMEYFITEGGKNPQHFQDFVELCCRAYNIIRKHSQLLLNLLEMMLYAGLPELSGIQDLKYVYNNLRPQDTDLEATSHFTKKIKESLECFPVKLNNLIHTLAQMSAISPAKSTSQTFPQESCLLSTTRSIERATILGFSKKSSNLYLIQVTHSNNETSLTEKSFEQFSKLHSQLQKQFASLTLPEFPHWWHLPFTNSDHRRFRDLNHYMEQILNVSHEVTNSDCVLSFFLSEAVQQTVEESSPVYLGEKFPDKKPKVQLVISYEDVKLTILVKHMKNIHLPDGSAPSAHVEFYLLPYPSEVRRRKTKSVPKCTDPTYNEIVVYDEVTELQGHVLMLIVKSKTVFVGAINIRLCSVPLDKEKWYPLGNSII

[3] = Distribution coefficient, logD of compound at pH 7.4; type: physicochemical; details: octanol/water
[4] = Apparent permeability in human Caco2 cells; type: ADME, cell-based; details: caco-2
[5] = biological target: Phosphatidylinositol 4,5-bisphosphate 3-kinase catalytic subunit gamma isoform (Mus musculus, UniProt Q9JHG7); test: Inhibition of PI3Kgamma in C5a-stimulated mouse RAW 264 cells assessed as inhibition of AKT phosphorylation at Ser473 residue Pretreated for 15 mins followed by C5a stimulation measured after 3 mins by HTRF assay; type: cell-based
Rattus norvegicus = test: Antiinflammatory activity in ovalbumin-induced Brown Norway rat assessed as reduction in eosinophil counts in bronchoalveolar lavage at 240 microg/kg inhaled using nebulizer 7 hrs prior to ovalbumin challenge measured after 48 hrs by flow cytometry; type: functional, organism-based; details: dose 240.0 µg/kg, time 55.0 hrs
[6] = Permeability in human Caco2 cells; type: ADME, cell-based; details: caco-2

Phosphatidylinositol 4,5-bisphosphate 3-kinase catalytic subunit gamma isoform, sequence (Q9JHG7 whole entry, canonical isoform): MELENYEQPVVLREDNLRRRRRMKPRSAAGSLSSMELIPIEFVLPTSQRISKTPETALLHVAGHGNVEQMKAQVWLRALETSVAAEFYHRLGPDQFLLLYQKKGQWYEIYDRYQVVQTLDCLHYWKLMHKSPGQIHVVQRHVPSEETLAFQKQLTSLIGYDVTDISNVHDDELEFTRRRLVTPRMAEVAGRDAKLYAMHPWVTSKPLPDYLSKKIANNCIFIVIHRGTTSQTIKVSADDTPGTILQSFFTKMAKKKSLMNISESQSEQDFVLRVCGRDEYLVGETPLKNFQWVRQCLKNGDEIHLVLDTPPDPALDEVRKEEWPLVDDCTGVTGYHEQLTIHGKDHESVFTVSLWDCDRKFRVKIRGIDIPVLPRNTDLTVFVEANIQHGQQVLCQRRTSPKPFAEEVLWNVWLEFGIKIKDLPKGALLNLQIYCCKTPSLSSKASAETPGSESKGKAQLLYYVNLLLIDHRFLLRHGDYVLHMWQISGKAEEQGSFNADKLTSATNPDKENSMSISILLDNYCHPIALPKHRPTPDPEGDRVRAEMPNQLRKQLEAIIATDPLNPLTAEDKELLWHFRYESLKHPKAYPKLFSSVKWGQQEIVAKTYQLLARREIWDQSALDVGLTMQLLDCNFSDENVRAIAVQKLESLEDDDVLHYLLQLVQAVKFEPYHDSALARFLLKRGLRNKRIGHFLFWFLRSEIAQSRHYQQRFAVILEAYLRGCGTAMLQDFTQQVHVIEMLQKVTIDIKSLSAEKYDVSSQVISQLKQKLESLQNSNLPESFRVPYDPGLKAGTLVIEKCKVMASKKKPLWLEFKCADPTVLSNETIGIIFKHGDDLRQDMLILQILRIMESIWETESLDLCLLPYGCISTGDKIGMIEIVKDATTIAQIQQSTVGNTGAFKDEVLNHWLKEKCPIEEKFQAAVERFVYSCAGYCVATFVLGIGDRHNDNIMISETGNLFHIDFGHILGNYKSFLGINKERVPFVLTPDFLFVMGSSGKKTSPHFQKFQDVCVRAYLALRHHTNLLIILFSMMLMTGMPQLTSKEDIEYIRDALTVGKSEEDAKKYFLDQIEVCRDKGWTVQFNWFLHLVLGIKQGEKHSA

Work on `Cc1nc(Nc2cccc(N3CCCC3=O)n2)sc1-c1cc2c(c(S(C)(=O)=O)c1)C(=O)N([C@@H](C)C1CC1)C2` [AZD-8154] yielded a Tm [1] of 285 °C, an IC50 [2] of 0.0631 µM and a logD [3] of 4.4. For the same molecule, the Papp [4] was “Impermeable”, the IC50 [5] was 0.000794 µM and the Activity (Rattus norvegicus) was “Active”. For the same molecule, the permeability [6] was “Permeable”.

Source: ChEMBL document CHEMBL5029145, “Discovery of AZD8154, a Dual PI3Kγδ Inhibitor for the Treatment of Asthma” (J Med Chem, 2021)
